From patent publication US7605168B2 (Plexxikon, Inc., priority 2004, dated 2009) come the findings set out here.

Test [1] has as its target T1, PDE4B: catalytic domain of human PDE4B from S152-S528 (Homo sapiens, UniProt Q07343).
T1 construct: The catalytic domain of human PDE4B from S152-S528; His6 (N, cleaved yes); thrombin cleavage site (N, cleaved yes); made in house; host or cells: E. coli BL21 (DE3) RIL
Put plainly: PDE4 IC50 determination by Scintillation Proximity Assay (SPA), PDE4B catalytic domain. The test is classed as biochemical. To be noted: [3H]cAMP SPA, 30 min at 30° C. Summed up:
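Human PDE4B catalytic domain (80 ng/ml) hydrolysed [3H]cAMP in 50 mM Tris pH 7.5, 8.3 mM MgCl, 1.7 mM EGTA, 0.01% BSA for 30 min at 30 °C. Reaction was stopped with yttrium silicate SPA beads in 18 mM ZnSO4, and bound [3H]AMP was counted by scintillation. IC50 came from non-linear regression.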
On the technique in general: SPA uses beads or plates that emit light when radiolabelled molecules are held near them.

Test [2] addresses T2, PDE4D5: full-length human PDE4D5 isozyme (Homo sapiens, UniProt Q08499).
T2 construct: made in house; host or cells: baculovirus infected insect cells (pFastBacHT)
Nature of the test: PDE4 IC50 determination by Scintillation Proximity Assay (SPA), full-length PDE4D5. The test is classed as biochemical. To be noted: cell lysate, [3H]cAMP SPA. Summed up:
(§1)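 Unpurified enzyme from cell lysates (PDE4B2 2.5 μl, PDE4D5 0.083 μl of 50% glycerol stock/ml) hydrolysing [3H]cAMP in 50 mM Tris pH 7.5, 8.3 mM MgCl, 1.7 mM EGTA, 0.01% BSA, 30 min at 30 °C. Stopped with yttrium silicate SPA beads in 18 mM ZnSO4; bead-bound [3H]AMP counted. IC50 by non-linear regression.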

Test [3] addresses T3, PDE4B2: full-length human PDE4B2 isozyme (Homo sapiens, UniProt Q07343).
T3 construct: made in house; host or cells: baculovirus infected insect cells (pFastBacHT)
Nature of the test: PDE4 IC50 determination by Scintillation Proximity Assay (SPA), full-length PDE4B2. The test is classed as biochemical. To be noted: cell lysate, [3H]cAMP SPA. Summed up:
as §1

Test [4] has as its system TNF-α release from whole blood cultures stimulated with LPS. Put plainly: IC50 by TNF alpha production upon stimulation of whole blood cultures with LPS. It counts as cell-based. To be noted: human whole blood (buffy coat) culture, 100 ng/ml LPS, 4 hours; read-out: h TNFα IC50. The method, then:
Compounds were assayed to generate IC50 numbers based on the inhibition of TNF-α release from whole blood cultures, using the following assay protocol (see Table 5 for compounds tested and results). Inhibition of PDE4B results in the inhibition of TNF-α release by whole blood cultures stimulated with lipopolysaccharide (LPS). The measurement of TNF-α release was used to assess compounds as PDE4B inhibitors.
Compounds were provided in DMSO at 20 mM and 2 μl per well was added to one row of a dilution plate. Added 98 μl of RPMI 1640 media with 2.5% heat inactivated FBS to each well containing compound. The same media with 2% DMSO was prepared and 60 μl was added to each of the empty wells in the dilution plate. The compound was serially diluted 1:3 (30 μl to 60 μl of media) for a total of 8 concentrations per compound. Wells were also prepared with 50 μM roflumilast and piclamilast as 100% inhibition controls, and 2% DMSO in media was used as 0% inhibition control. A 20 μl aliquot of each sample was transferred to an assay plate in duplicate.
Human buffy coat was obtained from the Stanford Medical School Blood Center and diluted with 7 volumes of RPMI 1640 media with 1% penicillin/streptomycin and 2.5% heat inactivated FBS. A 160 μl aliquot of the diluted blood was added to each well of the assay plates, mixed and incubated for 1 hour at 37° C. in 5% CO2. LPS (Sigma catalog number L2637) that had been diluted to 1 mg/ml in PBS and stored as 20 μl aliquots at −20° C. was thawed and diluted 1000× to 1 μg/ml. A 20 μl aliquot of this was added to each sample (final concentration 100 ng/ml LPS) after the 1 hour incubation. A background sample was prepared without addition of LPS as well. The samples were mixed on a shaker for one minute at 900 RPM and incubated for 4 hours at 37° C. in 5% CO2. The plates were then put on a shaker for one minute at 900 RPM, followed by centrifuging at 100×g for 10 minutes, deceleration setting of 5. The top 75 μl of supernatant was carefully pipetted to a new plate and frozen at −20° C.
A 50 μl aliquot of incubation buffer (Biosource International Immunoassay Kit:Human TNF-α catalog number KHC3011) was added to each well of a plate coated with monoclonal antibody specific for hTNF-α (Biosource kit). The supernatant blood samples were thawed and a 50 μl aliquot along with 50 μl of diluent buffer (Biosource kit) were added to incubation buffer and the samples were incubated for 2 hours at room temperature. The samples were washed 4 times with 300 μl/well wash buffer (Biosource kit). A 100 μl aliquot of biotinylated anti-TNFalpha (Biosource kit) was added and the samples incubated for 1 hour at room temperature. The samples were washed 4 times with 300 μl/well wash buffer. A 100 μl aliquot of Streptavidin-HRP solution (BioSource kit) was added and the samples incubated for 30 minutes at room temperature. The samples were washed 4 times with 300 μl/well wash buffer. A 100 μl aliquot of Chromagen (Biosource kit) was added and the samples incubated in the dark for 30 minutes. A 100 μl aliquot of stop solution (2N H2SO4) was added to each sample and samples were read at 450 nm on a WallacVictor for 0.1 sec/well.

Broadly, the IC50 is the point on the concentration scale where inhibition reaches its midpoint.

T2 sequence (Q08499 with tags, fused parts or gaps isoform Q08499-6): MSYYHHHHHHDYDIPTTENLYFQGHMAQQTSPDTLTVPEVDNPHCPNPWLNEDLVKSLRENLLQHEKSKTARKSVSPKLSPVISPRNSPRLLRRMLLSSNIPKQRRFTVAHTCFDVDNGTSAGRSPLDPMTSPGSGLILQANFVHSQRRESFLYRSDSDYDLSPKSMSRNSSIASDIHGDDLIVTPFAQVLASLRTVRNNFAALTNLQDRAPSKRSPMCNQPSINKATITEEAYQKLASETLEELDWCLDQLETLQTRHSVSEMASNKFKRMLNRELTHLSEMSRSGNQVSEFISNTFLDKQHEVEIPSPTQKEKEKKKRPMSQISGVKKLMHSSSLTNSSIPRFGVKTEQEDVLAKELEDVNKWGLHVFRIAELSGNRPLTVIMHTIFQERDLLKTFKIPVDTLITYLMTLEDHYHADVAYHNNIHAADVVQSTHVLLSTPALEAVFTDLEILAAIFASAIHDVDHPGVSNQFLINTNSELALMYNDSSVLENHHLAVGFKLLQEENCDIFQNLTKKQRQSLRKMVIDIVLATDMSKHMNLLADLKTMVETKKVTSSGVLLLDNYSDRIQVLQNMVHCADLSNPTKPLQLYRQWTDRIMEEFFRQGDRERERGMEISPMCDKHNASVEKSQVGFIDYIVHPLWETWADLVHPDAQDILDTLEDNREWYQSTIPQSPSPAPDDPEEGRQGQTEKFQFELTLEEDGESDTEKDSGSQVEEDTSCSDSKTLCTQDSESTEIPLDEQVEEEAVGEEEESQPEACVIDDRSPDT
T3 sequence (Q07343 with tags, fused parts or gaps isoform Q07343-2): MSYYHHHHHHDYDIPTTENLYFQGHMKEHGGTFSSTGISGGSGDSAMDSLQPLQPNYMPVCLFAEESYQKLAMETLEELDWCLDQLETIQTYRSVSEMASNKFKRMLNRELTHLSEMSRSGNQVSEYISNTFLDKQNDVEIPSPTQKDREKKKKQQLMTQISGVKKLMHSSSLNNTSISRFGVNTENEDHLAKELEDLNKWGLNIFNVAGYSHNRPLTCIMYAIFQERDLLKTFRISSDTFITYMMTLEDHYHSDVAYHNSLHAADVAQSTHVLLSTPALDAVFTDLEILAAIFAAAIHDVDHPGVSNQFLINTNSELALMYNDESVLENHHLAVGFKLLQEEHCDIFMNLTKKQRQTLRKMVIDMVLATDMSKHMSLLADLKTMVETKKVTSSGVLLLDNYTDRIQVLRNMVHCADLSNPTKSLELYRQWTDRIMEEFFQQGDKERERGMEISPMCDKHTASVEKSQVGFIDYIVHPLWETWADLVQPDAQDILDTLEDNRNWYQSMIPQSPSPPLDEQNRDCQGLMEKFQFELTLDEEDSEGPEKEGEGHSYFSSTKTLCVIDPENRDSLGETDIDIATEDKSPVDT
T1 sequence (Q07343 324-700): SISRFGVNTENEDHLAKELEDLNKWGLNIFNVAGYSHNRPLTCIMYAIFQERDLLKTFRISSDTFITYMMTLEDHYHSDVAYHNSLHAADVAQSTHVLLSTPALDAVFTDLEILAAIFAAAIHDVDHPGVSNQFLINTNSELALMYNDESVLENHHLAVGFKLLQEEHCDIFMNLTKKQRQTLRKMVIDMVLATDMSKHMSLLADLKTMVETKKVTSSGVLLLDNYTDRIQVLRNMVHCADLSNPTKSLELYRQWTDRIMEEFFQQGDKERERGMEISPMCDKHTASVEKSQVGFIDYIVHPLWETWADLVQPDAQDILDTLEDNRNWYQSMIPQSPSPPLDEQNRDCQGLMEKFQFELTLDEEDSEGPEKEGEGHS

Regarding `COc1ccc(-c2cn(C(=O)c3ccc(C)c4ccccc34)c3ncccc23)cc1OC` [Compound 114, [3-(3,4-Dimethoxy-phenyl)-pyrrolo[2,3-b]pyridin-1-yl]-(4-methyl-naphthalen-1-yl)-methanone], the IC50 was < 10 µM in test [1], < 10 µM in test [2], < 10 µM in test [3] and ≤ 10 µM in test [4].
With `COc1ccc(-c2cn(C(=O)c3c(-c4ccccc4)cnc4ccccc34)c3ncccc23)cc1OC` [Compound 117, [3-(3,4-Dimethoxy-phenyl)-pyrrolo[2,3-b]pyridin-1-yl]-(3-phenyl-quinolin-4-yl)-methanone], the IC50 in test [1] was < 10 µM; in test [2], < 10 µM; in test [3], < 10 µM; in test [4] it was > 10 µM.
As for `COc1ccc(-c2cn(Cc3ccc(C#N)cc3)c3ncccc23)cc1OC` [Compound 77, 4-[3-(3,4-Dimethoxy-phenyl)-pyrrolo[2,3-b]pyridin-1-ylmethyl]-benzonitrile], the IC50 in test [1] is < 10 µM; in test [2], < 10 µM; in test [3], < 10 µM; in test [4] it was ≤ 10 µM.
On to `CCOc1ccc2ccccc2c1C(=O)n1ccc2cc(-c3ccc(OC)c(OC)c3)cnc21` [Compound 80, [5-(3,4-Dimethoxy-phenyl)-pyrrolo[2,3-b]pyridin-1-yl]-(2-ethoxy-naphthalen-1-yl)-methanone], for which the IC50 in test [1] was < 10 µM; in test [2] it was < 10 µM; in test [3], < 10 µM; in test [4], > 10 µM.
For `COc1ccc(-c2cn(Cc3cccc(C(F)(F)F)c3)c3ncccc23)cc1OC` [Compound 79, 3-(3,4-Dimethoxy-phenyl)-1-(3-trifluoromethyl-benzyl)-1H-pyrrolo[2,3-b]pyridine], the IC50 in test [1] is < 10 µM; in test [2], < 10 µM; in test [3] it was < 10 µM; in test [4], ≤ 10 µM.
Turning to `COc1ccc(-c2cn(C(=O)Nc3cccc(C(C)=O)c3)c3ncccc23)cc1OC` [Compound 34, 3-(3,4-Dimethoxy-phenyl)-pyrrolo[2,3-b]pyridine-1-carboxylic acid (3-acetyl-phenyl)-amide], the IC50 in test [1] is < 10 µM; in test [2] it was < 10 µM; in test [3] it was < 10 µM; in test [4], ≤ 10 µM.
Turning to `COc1ccc(-c2cn(C(=O)c3cnccc3C(F)(F)F)c3ncccc23)cc1OC` [Compound 57, [3-(3,4-Dimethoxy-phenyl)-pyrrolo[2,3-b]pyridin-1-yl]-(4-trifluoromethypyridn-3-yl)-methanone-amide], the IC50 in test [1] was < 10 µM; in test [2], < 10 µM; in test [3], < 10 µM; in test [4] it was > 10 µM.
`COc1ccc(-c2cn(Cc3ccccc3)c3ncccc23)cc1OC` [Compound 75, 1-Benzyl-3-(3,4-dimethoxy-phenyl)-1H-pyrrolo[2,3-b]pyridine]: the IC50 in test [1] is < 10 µM; in test [2], < 10 µM; in test [3], < 10 µM; in test [4] it was ≤ 10 µM.
Turning to `COc1ccc(-c2cn(Cc3ccccc3-c3ccccc3)c3ncccc23)cc1OC` [Compound 78, 1-Biphenyl-2-ylmethyl-3-(3,4-dimethoxy-phenyl)-1H-pyrrolo[2,3-b]pyridine], the IC50 in test [1] was < 10 µM; in test [2], < 10 µM; in test [3] it was < 10 µM; in test [4], ≤ 10 µM.
For the compound `COc1ccc(-c2cn(S(=O)(=O)c3ccc(-c4nnc(C)o4)cc3)c3ncccc23)cc1OC` [Compound 73, 3-(3,4-Dimethoxy-phenyl)-1-[4-(5-methyl-[1,3,4]oxadiazol-2-yl)-benzenesulfonyl]-1H-pyrrolo[2,3-b]pyridine], the IC50 in test [1] is < 10 µM; in test [2], < 10 µM; in test [3] it was < 10 µM; in test [4] it was ≤ 10 µM.
On to `CCOc1ccccc1C(=O)n1ccc2c(-c3ccc(OC)c(OC)c3)ccnc21` [Compound 51, [4-(3,4-Dimethoxy-phenyl)-pyrrolo[2,3-b]pyridin-1-yl]-(2-ethoxy-phenyl)-methanone], for which the IC50 in test [1] is < 10 µM; in test [2] it was < 10 µM; in test [3], < 10 µM; in test [4], > 10 µM.
Regarding `COc1ccc(-c2cn(S(=O)(=O)Cc3cccc(Cl)c3)c3ncccc23)cc1OC` [Compound 9, 1-(3-chloro-phenylmethanesulfonyl)-3-(3,4-dimethoxy-phenyl)-1H-pyrrolo[2,3-b]pyridine], the half-maximal inhibitory concentration (IC50) in test [1] is < 10 µM; in test [2], < 10 µM; in test [3], < 10 µM; in test [4], ≤ 10 µM.
Regarding `COc1ccc(-c2cn(Cc3ccccc3CS(=O)(=O)c3ccccc3)c3ncccc23)cc1OC` [Compound 74, 1-(2-Benzenesulfonylmethyl-benzyl)-3-(3,4-dimethoxy-phenyl)-1H-pyrrolo[2,3-b]pyridine], the IC50 was < 10 µM in test [1], < 10 µM in test [2], < 10 µM in test [3] and ≤ 10 µM in test [4].
With `COc1ccc(-c2cn(S(=O)(=O)Cc3ccccc3)c3ncccc23)cc1OC` [Compound 8, 3-(3,4-dimethoxy-phenyl)-1-phenylmethanesulfonyl-1H-pyrrolo[2,3-b]pyridine], the IC50 is < 10 µM in test [1], < 10 µM in test [2], < 10 µM in test [3] and ≤ 10 µM in test [4].
For the compound `CCOc1cc([N+](=O)[O-])ccc1C(=O)n1cc(-c2ccc(OC)c(OC)c2)c2cccnc21` [Compound 54, [3-(3,4-Dimethoxy-phenyl)-pyrrolo[2,3-b]pyridin-1-yl]-(2-ethoxy-4-nitro-phenyl)-methanone], the IC50 is < 10 µM in test [1], < 10 µM in test [2], < 10 µM in test [3] and > 10 µM in test [4].
On to `COc1ccc(-c2cn(S(=O)(=O)c3csc4ccccc34)c3ncccc23)cc1OC` [Compound 91, 1-(Benzo[b]thiophene-3-sulfonyl)-3-(3,4-dimethoxy-phenyl)-1H-pyrrolo[2,3-b]pyridine], for which the IC50 is < 10 µM in test [1], < 10 µM in test [2], < 10 µM in test [3] and > 10 µM in test [4].
Regarding `COc1ccc(-c2cn(C(=O)c3ccccc3)c3ncccc23)cc1OC` [Compound 55, [3-(3,4-Dimethoxy-phenyl)-pyrrolo[2,3-b]pyridin-1-yl]phenylmethanone-amide], the IC50 in test [1] is < 10 µM; in test [2], < 10 µM; in test [3], < 10 µM; in test [4] it was ≤ 10 µM.
With `COc1ccc(-c2cn(C(=O)c3cccnc3Cl)c3ncccc23)cc1OC` [Compound 59, [3-(3,4-Dimethoxy-phenyl)-pyrrolo[2,3-b]pyridin-1-yl]-(2-chloropyridin-3-yl)-methanone-amide], the IC50 in test [1] was < 10 µM; in test [2], < 10 µM; in test [3], < 10 µM; in test [4], ≤ 10 µM.
